Data reported in patent publication US11241441B2, “Formulations of lixivaptan for the treatment of polycystic disease” (PALLADIO BIOSCIENCES, INC., priority 2017, dated 2022).
Like-named read-outs stand apart in the source and are kept apart here.

How the values were obtained:
[1] = Single 100 mg oral dose study in ESRD and normal renal function subjects: pharmacokinetics and tolerability; type: in vivo, human; settings: for AUC(0-inf) / AUC(0-t) / Cmax / Vd/F / half-life: po, 100 mg; for Vd/F: read-out: VZ/F Mean; for half-life: read-out: t1/2 Median (converted)
Experimental: A clinical study was undertaken to determine the pharmacokinetics (PK) of lixivaptan in renally impaired subjects. In this study, the PK of lixivaptan following a single 100 mg oral dose of lixivaptan was evaluated in subjects with end-stage renal disease (ESRD) and control subjects with normal renal function. Pharmacodynamic (PD) evaluations, including vasopressin concentration, serum sodium concentration, urine volume, and urine osmolality were assessed. Overall total lixivaptan exposure was, on average, 32 and 31% lower in ESRD subjects compared to subjects with normal renal function, as assessed by AUC0-∞ and AUC0-t, respectively. Similarly, peak total lixivaptan concentrations were, on average, 31% lower in subjects with ESRD.

[2] = In-clinic pharmacokinetic study: plasma pharmacokinetics and dose proportionality; type: in vivo, human; settings: 100 mg to 400 mg administered as 2 divided doses
Experimental: The primary objective of this study was to assess the pharmacokinetics and dose proportionality of lixivaptan over the dose range targeted for clinical use (e.g., 100 to 400 mg daily) using unit doses of 50 mg and multiples thereof given twice daily for 7.5 days.
Subjects received lixivaptan at total daily doses of 100 mg, 200 mg, or 400 mg (administered as 50, 100, and 200 mg Q12H). Subjects were to be enrolled into the study in two cohorts of 30 subjects, but actual cohort numbers were 23 and 34 subjects. Of the 57 subjects enrolled in the study, 27 were female (47.4%) and 30 were male (52.6%). The majority of subjects were White (35/57, 61.4%) and of Hispanic or Latino ethnicity (46/57, 80.7%). The overall mean age of subjects in the study was 33.6 (8.31) years, and the overall mean body mass index for subjects was 26.2 (3.79). There were to be approximately 20 subjects enrolled per dose level. An approximately equal number of males and females were enrolled at each dose level such that neither gender was represented by fewer than 8 subjects. The starting date for each cohort subjects was staggered by 7 days for logistical purposes. Screening evaluations were performed within 28 days prior to Day 1. […]

[3] = test system: cAMP; assay: Cyclic AMP content of whole kidneys of PCK rats (Direct cAMP ELISA); type: in vivo, rat; settings: for cAMP: whole kidney
Experimental: Experimental animals and study design. PCK rats were divided into control and treatment groups at four weeks of age (n=59, ˜10 animals per treatment group and gender). Lixivaptan was dissolved in DMSO and added to ground rodent chow (Regrind Labdiet 5053) at 0.5% or 1.0% concentration (w/w) by homogenous mixing, whereas control animals received the same diet without lixivaptan. Animals were exposed to control- or lixivaptan-diet for eight weeks and were sacrificed at twelve weeks of age.
Experimental Protocol. Twenty-four hour urine outputs in metabolic cages were collected twice at 6 and 9 weeks of age (Study week 3 and 6, respectively). At the end of the dosing period, the animals were weighed and anesthetized with ketamine 90 mg/kg and xylazine 10 mg/kg, IP. Blood samples were obtained by cardiac puncture for determination of plasma electrolytes, creatinine and plasma urea levels. The right kidney and part of the liver were placed into pre-weighed vials containing 10% formaldehyde in phosphate buffer (pH 7.4). The tissues were embedded in paraffin for histological studies. The left kidneys were immediately frozen in liquid nitrogen for determination of cAMP.
The kidneys were weighed and ground to fine powder under liquid nitrogen in a stainless steel mortar and homogenized in 10 volumes of 0.1M HCl. The protein concentration was measured by using BCA Protein Assay Kit (Pierce, Ill.). After centrifugation at 600 g for 10 min, the supernatant was further diluted in 0.1M HCl and run directly in the assay or stored frozen for later analysis. The cAMP content was assessed by Direct cAMP ELISA kit, according to the manufacturer's instructions (Enzo Life Sciences, Inc. Farmingdale, N.Y.). Samples were taken in triplicate. The results were expressed in pmol/mg of protein.

[4] = In-clinic pharmacokinetic study: adverse events, serum osmolality, urine output; type: in vivo, human
Experimental: Subjects received lixivaptan at total daily doses of 100 mg, 200 mg, or 400 mg (administered as 50, 100, and 200 mg Q12H). Subjects were to be enrolled into the study in two cohorts of 30 subjects, but actual cohort numbers were 23 and 34 subjects. Of the 57 subjects enrolled in the study, 27 were female (47.4%) and 30 were male (52.6%). The majority of subjects were White (35/57, 61.4%) and of Hispanic or Latino ethnicity (46/57, 80.7%). The overall mean age of subjects in the study was 33.6 (8.31) years, and the overall mean body mass index for subjects was 26.2 (3.79). There were to be approximately 20 subjects enrolled per dose level. An approximately equal number of males and females were enrolled at each dose level such that neither gender was represented by fewer than 8 subjects. The starting date for each cohort subjects was staggered by 7 days for logistical purposes. Screening evaluations were performed within 28 days prior to Day 1.
The following doses of lixivaptan were administered to subjects in this study: (a) Lixivaptan 100 mg, administered as 50 mg [1×50 mg capsule] every 12 hours×15 doses; (b) lixivaptan 200 mg, administered as 100 mg [2×50 mg capsules] every 12 hours×15 doses; and (c) Lixivaptan 400 mg, administered as 200 mg [4×50 mg capsules] every 12 hours×15 doses.
Prior to the morning doses of lixivaptan on Days 1 and 8, subjects fasted for approximately 10 hours prior to lixivaptan administration and 4 hours after lixivaptan administration. All other doses were administered under fasting conditions, either 2 hours before or 2 hours after meals. The study medication was administered with 240 milliliters (mL) room temperature water. Subjects were not to receive any oral fluids, other than those used to administer the dose, for 1 hour before and 1 hour after dose administration. Subjects remained sitting or semi-supine, except to void, for 6 hours following the first two doses. While in the clinic, the subjects refrained from strenuous physical activity.

[5] = human, in vivo, single 100 mg oral dose, ESRD
[6] = human, in vivo, single 100 mg oral dose, Normal
[7] = single 100 mg oral dose, Normal

Question: For Cc1ccc(F)cc1C(=O)Nc1ccc(C(=O)N2Cc3cccn3Cc3ccccc32)c(Cl)c1 [Lixivaptan, 5-fluoro-2-methyl-N-[4-(5H-pyrrolo[2,1-C] [1,4]benzodiazepin-10(11H)-ylcarbonyl)-3-chlorophenyl]benzamide], which “tolerability of single doses” value ([1]; both groups (normal, ESRD)) is on record?
Answer: The value was “well tolerated”.

Question: And the AUC(0-inf) [1, 5]?
Answer: Its AUC(0-inf) is 856 ng·h/mL.

Question: And the AUC(0-t) [1, 5]?
Answer: The AUC(0-t) was 809 ng·h/mL.

Question: What about the Cmax [1, 5] of the same compound?
Answer: Its Cmax is 238 ng/mL.

Question: What about the Vd/F [1, 5] of the same compound?
Answer: The Vd/F was 2740 L.

Question: What about the half-life [1, 5] of the same compound?
Answer: Its half-life is 13.3 h.

Question: What about the AUC(0-t) [1, 6] of the same compound?
Answer: Its AUC(0-t) is 1200 ng·h/mL.

Question: What about the Cmax [1, 6] of the same compound?
Answer: The Cmax was 383 ng/mL.

Question: What about the AUC(0-inf) ([1]; human, in vivo, single 100 mg oral dose, Normal renal function) of the same compound?
Answer: The AUC(0-inf) was 1290 ng·h/mL.

Question: And the Vd/F [1, 6]?
Answer: Its Vd/F is 1750 L.

Question: What about the half-life [1, 6] of the same compound?
Answer: The half-life was 12 h.

Question: What about the Tmax ([1]; human, in vivo, single 100 mg oral dose, Normal, read-out: tmax Median) of the same compound?
Answer: Its Tmax is 1 h.

Question: And the “peak total lixivaptan concentrations lower in subjects with ESRD” value ([1]; single 100 mg oral dose)?
Answer: The value was 31%.

Question: And the “total lixivaptan exposure (AUC0-t) lower in ESRD subjects compared to normal renal function” value ([1]; single 100 mg oral dose)?
Answer: The value was 31%.

Question: What about the “total lixivaptan exposure (AUC0-∞) lower in ESRD subjects compared to normal renal function” value ([1]; single 100 mg oral dose) of the same compound?
Answer: Its value is 32%.

Question: What about the “CL/F Mean” value ([1]; single 100 mg oral dose, ESRD) of the same compound?
Answer: The value was 137 L/h.

Question: What about the “Lambdaz Median” value ([1]; single 100 mg oral dose, ESRD) of the same compound?
Answer: The value was 0.05752 h⁻¹.

Question: And the “CL/F Mean” value [1, 7]?
Answer: Its value is 94.2 L/h.

Question: And the “Lambdaz Median” value [1, 7]?
Answer: Its value is 0.06035 h⁻¹.

Question: And the “dose proportionality of pharmacokinetic parameters (Cmax, AUC(0-12))” value [2]?
Answer: The value was “proportional kinetics”.

Question: And the “reduction in kidney cAMP levels” value ([3]; PCK rats, 0.5% lixivaptan, compared to control)?
Answer: Its value is 23%.

Question: And the cAMP ([3]; PCK rats F, 0.5% Lixivaptan)?
Answer: Its cAMP is 15.0 ± 4.6 pmol/mg protein.

Question: What about the cAMP ([3]; PCK rats F, 1.0% Lixivaptan) of the same compound?
Answer: Its cAMP is 23.6 ± 8.1 pmol/mg protein.

Question: What about the cAMP ([3]; PCK rats M, 0.5% Lixivaptan) of the same compound?
Answer: The cAMP was 16.5 ± 5.1 pmol/mg protein.

Question: What about the cAMP ([3]; PCK rats M, 1.0% Lixivaptan) of the same compound?
Answer: The cAMP was 24.0 ± 12.0 pmol/mg protein.

Question: And the “headache considered possibly or probably related to study drug” value ([4]; 100 mg group)?
Answer: Its value is 2 subject.

Question: And the “headache considered possibly or probably related to study drug” value ([4]; 200 mg group)?
Answer: Its value is 1 subject.

Question: What about the “asthenia considered possibly or probably related to study drug” value ([4]; 400 mg group) of the same compound?
Answer: Its value is 1 subject.

Question: And the “headache considered possibly or probably related to study drug” value ([4]; 400 mg group)?
Answer: Its value is 1 subject.

Question: What about the “vomiting considered possibly or probably related to study drug” value ([4]; 400 mg group) of the same compound?
Answer: Its value is 1 subject.

Question: And the urine output ([4]; Days 1-8)?
Answer: Its urine output is “increased”.

Question: And the serum osmolality ([4]; during the study, dose related)?
Answer: The serum osmolality was “mildly increased”.

Question: And the tolerability ([4]; healthy subjects, 50-200 mg Q12H for 7.5 days)?
Answer: Its tolerability is “well tolerated”.

Question: And the “treatment-emergent AE chest discomfort” value ([4]; of the 57 enrolled subjects)?
Answer: Its value is 2 subjects.

Question: What about the “treatment-emergent AE constipation” value ([4]; of the 57 enrolled subjects) of the same compound?
Answer: Its value is 3 subjects.

Question: What about the “treatment-emergent AE headache” value ([4]; of the 57 enrolled subjects) of the same compound?
Answer: The value was 7 subjects.
